Data taken from paper PMC10688820 (Microbiome Research Reports, 2023).
Like-named read-outs stand apart in the source and are kept apart here. Values belong to the compound of their own block, whether it stands above or below them.

Experiments:
BiBga42A [1] = biological target: T1, BiBga42A (Bifidobacterium longum, UniProt Z9E2X9H8H4, A160E/A318E, form not given); assay: coupled colorimetric Gal release assay (Thio-NADH, […] nm); format: biochemical; conditions: 100 mM citrate-phosphate pH 6.5, 37 °C, 12.5 mM MgCl2 (coupling mix)
T1 construct: C-terminal hexahistidine tag, pET23b, expressed in E. coli BL21 (DE3) ΔlacZ; GH42; homotrimer, active site completed by W200 and F221 of neighbouring subunit

BiBga42A [2] = biological target: T2, BiBga42A (Bifidobacterium longum, UniProt Z9E2X9H8H4, A160E, form not given); assay: as above; format: biochemical; conditions: 100 mM citrate-phosphate pH 6.5, 37 °C, 12.5 mM MgCl2 (coupling mix); read-out: pNP-Gal
T2 construct: C-terminal hexahistidine tag, pET23b, expressed in E. coli BL21 (DE3) ΔlacZ; GH42; homotrimer, active site completed by W200 and F221 of neighbouring subunit

BiBga42A [3] = biological target: T3, BiBga42A (Bifidobacterium longum, UniProt Z9E2X9H8H4, A318E, form not given); assay: as above; format: biochemical; conditions: 100 mM citrate-phosphate pH 6.5, 37 °C, 12.5 mM MgCl2 (coupling mix); read-out: pNP-Gal
T3 construct: C-terminal hexahistidine tag, pET23b, expressed in E. coli BL21 (DE3) ΔlacZ; GH42; homotrimer, active site completed by W200 and F221 of neighbouring subunit

BiBga42A [4] = biological target: T4, BiBga42A (Bifidobacterium longum, UniProt Z9E2X9H8H4, A160E/A318E/W326A, form not given); assay: as above; format: biochemical; conditions: 100 mM citrate-phosphate pH 6.5, 37 °C, 12.5 mM MgCl2 (coupling mix)
T4 construct: C-terminal hexahistidine tag, pET23b, expressed in E. coli BL21 (DE3) ΔlacZ; GH42; homotrimer, active site completed by W200 and F221 of neighbouring subunit

BiBga42A [5] = biological target: T5, BiBga42A (Bifidobacterium longum, UniProt Z9E2X9H8H4, R121A/A160E/A318E, form not given); assay: as above; format: biochemical; conditions: 100 mM citrate-phosphate pH 6.5, 37 °C, 12.5 mM MgCl2 (coupling mix)
T5 construct: C-terminal hexahistidine tag, pET23b, expressed in E. coli BL21 (DE3) ΔlacZ; GH42; homotrimer, active site completed by W200 and F221 of neighbouring subunit

[6] = biological target: BiBga42A E160A/E318A double mutant (Bifidobacterium longum subsp. infantis ATCC 15697); assay: crystal structure; hanging drop vapor diffusion, 20 °C, 20 mg/mL protein; trimer seen by a crystallographic 3-fold axis (WT-GOL, E318S-LNT) or within the asymmetric unit (E160A/E318A-Gal)
[7] = biological target: BiBga42A wild-type (WT) enzyme, glycoside hydrolase family 42 β-galactosidase from Bifidobacterium longum subsp. infantis ATCC 15697 (Bifidobacterium longum subsp. infantis ATCC 15697); assay: as above
[8] = biological target: BiBga42A E318S mutant (Bifidobacterium longum subsp. infantis ATCC 15697); assay: as above
BiBga42A [9] = biological target: T6, BiBga42A (Bifidobacterium longum, UniProt Z9E2X9H8H4, A160E/A318S, form not given); assay: X-ray co-crystal structure, […] Å; format: binding; conditions: co-crystallised with 100 mM LNT, pH 5.8; subsites -1 to +3
T6 construct: C-terminal hexahistidine tag, pET23b, expressed in E. coli BL21 (DE3) ΔlacZ; GH42; homotrimer, active site completed by W200 and F221 of neighbouring subunit

BiBga42A [10] = biological target: T7, BiBga42A (Bifidobacterium longum, UniProt Z9E2X9H8H4, A160E/A318E/R327A, form not given); assay: coupled colorimetric Gal release assay (Thio-NADH, […] nm); format: biochemical; conditions: 100 mM citrate-phosphate pH 6.5, 37 °C, 12.5 mM MgCl2 (coupling mix); read-out: LNT
T7 construct: C-terminal hexahistidine tag, pET23b, expressed in E. coli BL21 (DE3) ΔlacZ; GH42; homotrimer, active site completed by W200 and F221 of neighbouring subunit

BiBga42A [11] = biological target: T8, BiBga42A (Bifidobacterium longum, UniProt Z9E2X9H8H4, A160E/F221A/A318E, form not given); assay: as above; format: biochemical; conditions: 100 mM citrate-phosphate pH 6.5, 37 °C, 12.5 mM MgCl2 (coupling mix); read-out: LNT
T8 construct: C-terminal hexahistidine tag, pET23b, expressed in E. coli BL21 (DE3) ΔlacZ; GH42; homotrimer, active site completed by W200 and F221 of neighbouring subunit

BiBga42A [12] = biological target: T9, BiBga42A (Bifidobacterium longum, UniProt Z9E2X9H8H4, A160E/Y287F/A318E, form not given); assay: as above; format: biochemical; conditions: 100 mM citrate-phosphate pH 6.5, 37 °C, 12.5 mM MgCl2 (coupling mix); read-out: LNT
T9 construct: C-terminal hexahistidine tag, pET23b, expressed in E. coli BL21 (DE3) ΔlacZ; GH42; homotrimer, active site completed by W200 and F221 of neighbouring subunit

BiBga42A [13] = biological target: T10, BiBga42A (Bifidobacterium longum, UniProt Z9E2X9H8H4, A160E/M262G/A318E, form not given); assay: as above; format: biochemical; conditions: 100 mM citrate-phosphate pH 6.5, 37 °C, 12.5 mM MgCl2 (coupling mix); read-out: LNT
T10 construct: C-terminal hexahistidine tag, pET23b, expressed in E. coli BL21 (DE3) ΔlacZ; GH42; homotrimer, active site completed by W200 and F221 of neighbouring subunit

Compound: O=[N+]([O-])c1ccc(O[C@@H]2O[C@H](CO)[C@H](O)[C@H](O)[C@H]2O)cc1 [pNP-Gal]
- Km (BiBga42A [1]; read-out: pNP-Gal): 0.57 mM
- Km (BiBga42A [2]): 1.4 mM
- Km (BiBga42A [3]): 0.94 mM
- Km (BiBga42A [4]; read-out: pNP-Gal): 12 mM
- Km (BiBga42A [5]; read-out: pNP-Gal): 1.4 mM

Compound: BiBga42A E160A/E318A double mutant (enzyme)
- stoichiometry N [6]: 3

Compound: BiBga42A E318S mutant (enzyme)
- stoichiometry N [8]: 3

Compound: CC(=O)N[C@H]1[C@H](O[C@H]2[C@@H](O)[C@@H](CO)O[C@@H](O[C@H]3[C@H](O)[C@@H](O)C(O)O[C@@H]3CO)[C@@H]2O)O[C@H](CO)[C@@H](O)[C@@H]1O[C@@H]1O[C@H](CO)[C@H](O)[C@H](O)[C@H]1O (some centres unmarked) [LNT]
- X-ray co-crystal structure, 2.2 Å (BiBga42A [9]): An LNT-complexed crystal was indeed obtained for the mutant
- Km (BiBga42A [1]; read-out: LNT): 2.7 mM
- Km (BiBga42A [10]): 11 mM
- Km (BiBga42A [11]): 8.4 mM
- Km (BiBga42A [12]): 2.6 mM
- Km (BiBga42A [4]; read-out: LNT): 7.7 mM
- Km (BiBga42A [5]; read-out: LNT): 16 mM
- Km (BiBga42A [13]): 3 mM

The remaining lines, values ahead:

- Km (BiBga42A [1]; read-out: LNB): 25 mM
Compound: CC(=O)N[C@H]1C(O)O[C@H](CO)[C@@H](O)[C@@H]1O[C@@H]1O[C@H](CO)[C@H](O)[C@H](O)[C@H]1O (some centres unmarked) [LNB]

- stoichiometry N [7]: 3
Compound: BiBga42A wild-type (WT) enzyme, glycoside hydrolase family 42 β-galactosidase from Bifidobacterium longum subsp. infantis ATCC 15697
